# Results from patent US20260176289A1, “SMALL MOLECULE INHIBITORS OF KRAS PROTEINS” (Merck Sharp & Dohme LLC, priority 2022, published 2026).
# Read-outs that look alike come from different tables or passages of the source.
# Assays:
# SW620 cells = assay: Cellular phospho-ERK assay, SW620 cells (homozygous KRAS-G12V); type: cell-based; conditions: Homo sapiens, read-out: SW620 pERK IC50
# Method in brief: (§1)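 Overnight-plated cells on collagen received test compound (up to 30 μM final, threefold steps, ten concentrations) for two hours. After lysis at room temperature, phosphorylated and total ERK were quantified together by Alpha SureFire, and IC50 is based on the phospho-to-total signal ratio.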
# MKN-1 cells = assay: Cellular phospho-ERK assay, MKN-1 cells (amplified wild-type KRAS); type: cell-based; conditions: Homo sapiens, read-out: MKN1 pERK IC50
# Method in brief: as §1
# KRAS-WT = KRAS-WT (Homo sapiens, UniProt P01116); assay: SOS-catalyzed nucleotide exchange assay (Procedure A, TR-FRET), KRAS-WT; type: biochemical; conditions: nucleotide exchange, read-out: KRAS WT GNE IC50
# Method in brief: (§2)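 TR-FRET 520/495 nm ratio read after SOS-driven exchange of Bodipy-GDP for unlabeled GTP (3 mM) on biotinylated RAS bound to Tb-streptavidin. There was a 60 min compound preincubation, RT. Final RAS/SOS and reaction times: G12C 3 nM/40 nM; WT 1 nM/40 nM; NRAS 1.25 nM/40 nM, each 60 min. G12V was 1.25 nM/160 nM, 90 min.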
# AsPC-1 cells = assay: Cellular phospho-ERK assay, AsPC-1 cells (homozygous KRAS-G12D); type: cell-based; conditions: Homo sapiens, ASPC1, 2 h, read-out: AsPC1 pERK IC50
# Method in brief: as §1
# KRAS-G12V = KRAS-G12V (Homo sapiens, UniProt P01116, G12V); assay: SOS-catalyzed nucleotide exchange assay (Procedure A, TR-FRET), KRAS-G12V; type: biochemical; conditions: nucleotide exchange, read-out: KRAS G12V GNE IC50
# Method in brief: as §2
# KRAS-G12D = KRAS-G12D (Homo sapiens, UniProt P01116, G12D); assay: SOS-catalyzed nucleotide exchange assay (Procedure A, TR-FRET), KRAS-G12D; type: biochemical; conditions: nucleotide exchange, read-out: KRAS G12D GNE IC50
# Method in brief: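 Signal ratio (520/495 nm, excitation 340 nm) reports Bodipy-GDP retention on biotinylated RAS after SOS-catalyzed exchange with 3 mM GTP. SOS was 40 nM, except 160 nM for G12V. Room-temperature exchange lasted 60 min (90 min for G12V), following a 60 min compound preincubation.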
# [1] = SW-620, 2 hours compound incubation
# [2] = amplified wild-type KRAS, 2 hours
# Sequence of KRAS-G12D (P01116 with tags, fused parts or gaps isoform P01116-2 G12D): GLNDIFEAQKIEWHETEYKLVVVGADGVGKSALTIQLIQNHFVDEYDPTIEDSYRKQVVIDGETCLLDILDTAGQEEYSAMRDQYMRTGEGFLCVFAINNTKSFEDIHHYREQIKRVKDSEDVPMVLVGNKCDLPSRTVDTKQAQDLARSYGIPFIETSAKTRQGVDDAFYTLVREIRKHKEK
# Sequence of KRAS-G12V (P01116 with tags, fused parts or gaps isoform P01116-2 G12V): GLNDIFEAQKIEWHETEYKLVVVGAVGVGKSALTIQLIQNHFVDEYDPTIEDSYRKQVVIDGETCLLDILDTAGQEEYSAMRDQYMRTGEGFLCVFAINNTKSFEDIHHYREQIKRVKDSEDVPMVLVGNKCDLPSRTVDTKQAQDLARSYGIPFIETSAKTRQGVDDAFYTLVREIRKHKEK
# Sequence of KRAS-WT (P01116 with tags, fused parts or gaps isoform P01116-2): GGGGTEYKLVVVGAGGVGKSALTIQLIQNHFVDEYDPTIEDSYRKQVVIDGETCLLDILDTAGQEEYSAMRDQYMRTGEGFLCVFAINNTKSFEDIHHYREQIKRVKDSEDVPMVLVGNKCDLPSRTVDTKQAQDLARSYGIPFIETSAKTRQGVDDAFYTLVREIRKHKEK
SMILES,IC50 (SW620 cells; [1]),IC50 (MKN-1 cells; 2 hours compound incubation),IC50 (KRAS-WT),IC50 (AsPC-1 cells; 2 hours compound incubation),IC50 (KRAS-G12V),IC50 (KRAS-G12D),"IC50 (SW620 cells; SW-620, KRAS-G12V, 2 hours)",IC50 (MKN-1 cells; [2]),"IC50 (AsPC-1 cells; KRAS-G12D, 2 hours)"
"C[C@@]1(O)COCCN(c2nc(OC[C@@]34CCCN3C[C@H](F)C4)nc3sc4c(-c5c(C6(F)CC6)c(C(F)(F)F)cc6[nH]ncc56)nncc4c23)C1 [Ex-283, (6S)-4-(8-(5-(1-fluorocyclopropyl)-6-(trifluoromethyl)-1H-indazol-4-yl)-2-(((2R,7aS)-2-fluorotetrahydro-1H-pyrrolizin-7a(5H)-yl)methoxy)pyrimido [5′,4′:4,5]thieno[2,3-d]pyridazin-4-yl)-6-methyl-1,4-oxazepan-6-ol]",–,–,14.5 nM,–,15.4 nM,5.26 nM,41.5 nM,77.4 nM,244 nM
C[C@@H]1CCCc2cc3[nH]ncc3c(-c3nccc4c3sc3nc(OC[C@@]56CCCN5C[C@H](F)C6)nc(N5CCOC[C@@](C)(O)C5)c34)c21 [Ex-116],–,–,9.84 nM,–,17.9 nM,4.87 nM,36.4 nM,46.4 nM,56.6 nM
"Cc1cc2[nH]ncc2c(-c2nccc3c2sc2nc(OC[C@@]45CCCN4C[C@H](F)C5)nc(N4CCOC[C@]5(CCO5)C4)c23)c1C(F)(F)F [Ex-198, (4S)-9-(2-(((2R,7aS)-2-fluorotetrahydro-1H-pyr-rolizin-7a(5H)-yl)meth-oxy)-8-(6-methyl-5-(tri-fluoromethyl)-1H-indazol-4-yl)pyrido[4′,3′:4,5]thieno[2,3-d]pyrimidin-4-yl)-1,6-dioxa-9-azaspiro [3.6]decane]",74.3 nM,120 nM,132 nM,140 nM,33.5 nM,36 nM,–,–,–
"CCC1(O)COCCN(c2nc(OC[C@@]34CCCN3C[C@H](F)C4)nc3sc4c(-c5c(C(F)(F)F)c(C)cc6[nH]ncc56)nccc4c23)C1 (stereo partly drawn) [Ex-201, 6-ethyl-4-(2-(((2R,7aS)-2-fluorotetrahydro-1H-pyr-rolizin-7a(5H)-yl)meth-oxy)-8-(6-methyl-5-(tri-fluoromethyl)-1H-indazol-4-yl)pyrido[4′,3′:4,5]thieno[2,3-d]pyrimidin-4-yl)-1,4-oxazepan-6-ol]",220 nM,373 nM,404 nM,923 nM,206 nM,285 nM,–,–,–

# Continued, in another order:
IC50 (SW620 cells; [1]),IC50 (MKN-1 cells; 2 hours compound incubation),IC50 (KRAS-WT),IC50 (AsPC-1 cells; 2 hours compound incubation),IC50 (KRAS-G12V),IC50 (KRAS-G12D),SMILES,"IC50 (SW620 cells; SW-620, KRAS-G12V, 2 hours)",IC50 (MKN-1 cells; [2]),"IC50 (AsPC-1 cells; KRAS-G12D, 2 hours)"
48 nM,106 nM,43.6 nM,133 nM,47.5 nM,19.8 nM,C[C@@]1(O)COCCN(c2nc(OC[C@@]34CCCN3C[C@H](F)C4)nc3sc4c(-c5c6cn[nH]c6cc6ccc(F)c(Cl)c56)nccc4c23)C1 [Ex-162],–,–,–
29.4 nM,33.7 nM,8.2 nM,54.5 nM,11.4 nM,1.85 nM,"C[C@@]1(O)COCCN(c2nc(OC[C@]3(CN4CCC4)CC3(F)F)nc3sc4c(-c5c(C6(F)CC6)c(Cl)cc6[nH]ncc56)nccc4c23)C1 [Ex-239, (6S)-4-(2-(((R)-1-(azetidin-1-ylmethyl)-2,2-difluorocyclopropyl)methoxy)-8-(6-chloro-5-(1-fluorocyclopropyl)-1H-indazol-4-yl)pyrido[4′,3:′4,5]thieno[2,3-d]pyrimidin-4-yl)-6-methyl-1,4-oxazepan-6-ol]",–,–,–
42.8 nM,36.3 nM,12.5 nM,45.7 nM,15.5 nM,3.09 nM,"C[C@@]1(O)COCCN(c2nc(OC[C@]3(CN4CC5(CCOCC5)C4)CC3(F)F)nc3sc4c(-c5c(C6(F)CC6)c(Cl)cc6[nH]ncc56)nccc4c23)C1 [Ex-248, (6S)-4-(2-(((R)-1-((7-oxa-2-azaspiro[3.5]nonan-2-yl)methyl)-2,2-difluorocyclopropyl)methoxy)-8-(6-chloro-5-(1-fluorocyclopropyl)-1H-indazol-4-yl)pyrido[4′,3′:4,5]thieno[2,3-d]pyrimidin-4-y1)-6-methyl-1,4-oxazepan-6-ol]",–,–,–
